Source: US11718619B2, “Isoxazolyl-carbonyloxy azabicyclo[3.2.1]octanyl compounds as FXR activators” (ARDELYX, INC., priority 2016, dated 2023)

Columns and labels:
[1] = target: human Famesoid X receptor ligand-binding domain/Gal4 DNA binding domain chimera (Homo sapiens (Human), UniProt Q96RI1); assay: Cellular FXR beta-lactamase reporter assay (FXR-UAS-bla HEK 293T); type: cell-based; settings: for Emax: HEK-293T, read-out: % Efficacy; for EC50: read-out: FXR pEC50 (converted); for % Efficacy: extent of activation relative to GW4064
human Famesoid X receptor ligand-binding domain/Gal4 DNA binding domain chimera, sequence (Q96RI1 262-486, stated change not applied): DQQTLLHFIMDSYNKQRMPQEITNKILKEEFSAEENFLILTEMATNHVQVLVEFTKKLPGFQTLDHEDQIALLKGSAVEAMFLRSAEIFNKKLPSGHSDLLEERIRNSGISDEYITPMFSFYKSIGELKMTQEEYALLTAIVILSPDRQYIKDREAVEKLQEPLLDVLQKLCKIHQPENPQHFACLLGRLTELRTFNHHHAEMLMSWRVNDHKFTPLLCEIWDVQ
Experimental: FXR activation was measured using a cell line and procedure obtained from Life Technologies (Cat #K1691). FXR-UAS-&/a HEK 293T cells contain a human Famesoid X receptor ligand-binding domain/Gal4 DNA binding domain chimera stably integrated into the CellSensor® UAS-bla HEK293T cell line. The CellSensor® UAS-bla HEK293T contains a beta-lactamase reporter gene under control of a UAS response element stably integrated into HEK 293T cells. Activation of FXR by bound ligands results in transcriptional activation of the beta-lactamase reporter gene, which is detected via assay of beta-lactamase activity.
Cells are harvested and diluted into assay medium containing phenol red-free DMEM supplemented with 2% Charcoal-stripped FBS, pyruvate, non-essential amino acids. Cells are then transferred to a 384 well assay plate. Test compounds are dissolved in DMSO and a 3-fold serial dilution series is generated, then further diluted into assay medium. Compounds in assay medium are added to cells in the 384 well plate and allowed to incubate 16 h at 37 C in the presence of 5% CO2.
A FRET-based […] (CCF4) is loaded into cells as its acetomethoxy ester. Intracellular esterases liberate free CCF4, a cephalosporin core linking 7-hydroxycoumarin to fluorescein. In the presence of beta-lactamase activity produced in the presence of FXR agonists, cleavage of CCF4 spatially separates the two dyes and disrupts FRET, so that exciting the coumarin at 409 nm now produces a blue fluorescence signal at 447 nm. The change in FRET signal is plotted against the test compound concentration and fit to a 3-parameter logistical equation.

[2] = target: ligand binding domain of human FXR (Homo sapiens (Human), UniProt Q96RI1); assay: FXR ligand binding assay (LanthaScreen FRET); settings: for Emax: read-out: % Efficacy; for % Efficacy: extent of activation relative to GW4064
ligand binding domain of human FXR, sequence (Q96RI1 262-486): as the sequence (Q96RI1 262-486, stated change not applied) above
Experimental: The affinity of FXR ligands for the ligand binding domain of FXR was determined using a commercially available human FXR ligand binding assay (LanthaScreen, Thermofisher Cat #PV4833). […] Binding of FXR ligands to the FXR ligand binding domain promotes binding of the fluorescein-labelled SRC2-2 peptide. This causes a FRET signal between the terbium-labelled anti-GST antibody and the fluorescein-labelled SRC peptide which are both bound to the FXR ligand binding domain.
Test compounds are dissolved in DMSO and a 3-fold serial dilution series is generated, then further diluted into assay buffer. The compounds are mixed with 5 nM GST-tagged FXR ligand binding domain, 5 nM Tb-labelled anti-GST antibody and 500 nM fluorescein-labelled SRC2-2 peptide in a pH 7.4 buffer. The reaction is incubated at room temperature for 1 hour, then the FRET signal is measured as the ratio of the 520 nm/495 nm emission following excitation at 340 nm. The change in FRET signal is plotted against the test article concentration and fit to a 3-parameter logistical equation.

[3] = tested on: fibroblast growth factor 19 (FGF19) secretion in human ileum; assay: Human Ileum APECCS (FGF19); type: cell-based; settings: relative to GW4064
[4] = tested on: C57BL/6 male mice fed a Western diet; assay: Western diet study; type: in vivo, C57BL/6 mice
Experimental: Six-week-old C57BL/6 male mice were fed a Western diet (WD) (62% fat/0.2% cholesterol). […] An additional control group (lean) was fed a standard rodent chow throughout the study. Body weight measurements and serum samples (tail bleed) were taken weekly. After 6 weeks of treatment, all animals were sacrificed and hepatosteatosis-related endpoints and other liver markers were measured.
Total RNA from mouse tissues was isolated and used for library preparation. Library samples were multiplexed ahead of mRNA sequencing.

Compound	Emax [1]	EC50 [1]	Emax [2]	other results
CC1(c2onc(-c3c(Cl)cccc3Cl)c2C(=O)OC2C[C@H]3CC[C@@H](C2)N3c2nc3c(F)cc(C(=O)O)cc3s2)CC1 (single isomer, unassigned) [Compound I-26]	106%	31.6 nM	75%	
O=C(O)c1cc(F)c2nc(N3[C@@H]4CC[C@H]3C[C@@H](OC(=O)c3c(-c5c(Cl)cccc5OC(F)F)noc3C3CC3)C4)sc2c1 [Compound I-15, 2-[(1R,3R,5S)-3-{3-[2-chloro-6-(difluoromethoxy)phenyl]-5-cyclopropyl-1,2-oxazole-4-carbonyloxy}-8-azabicyclo[3.2.1]octan-8-yl]-4-fluoro-1,3-benzothiazole-6-carboxylic acid]	108%	39.8 nM	71%	
O=C(O)c1cc(F)c2nc(N3[C@@H]4CC[C@H]3C[C@@H](OC(=O)c3c(-c5c(Cl)cccc5Cl)noc3C3CCC3)C4)sc2c1 [Compound I-24, 2-[(1R,3R,5S)-3-[5-cyclobutyl-3-(2,6-dichlorophenyl)-1,2-oxazole-4-carbonyloxy]-8-azabicyclo[3.2.1]octan-8-yl]-4-fluoro-1,3-benzothiazole-6-carboxylic acid]	98%	31.6 nM	64%	
2-[(1R,3S,5S)-3-(5-cyclopropyl-3-{4-methoxybicyclo[2.2.2]octan-1-yl}-1,2-oxazole-4-carbonyloxy)-8-azabicyclo[3.2.1]octan-8-yl]-4-(trifluoromethoxy)-1,3-benzothiazole-6-carboxylic acid [Compound I-58]				FXR pEC50 ([1]; pEC50 = −log EC50, 16 h incubation): >4.5; % Efficacy [2]: 22%; FXR pEC50 ([2]; pEC50 = −log EC50, FRET signal, SRC2-2 peptide): >4.4
O=C(O)c1cc(F)c2nc(N3[C@@H]4CC[C@H]3C[C@@H](OC(=O)c3c(-c5ccccc5OC(F)(F)F)noc3C3CC3)C4)sc2c1 [Compound I-14, 2-[(1R,3R,5S)-3-{5-cyclopropyl-3-[2-(trifluoromethoxy)phenyl]-1,2-oxazole-4-carbonyloxy}-8-azabicyclo[3.2.1]octan-8-yl]-4-fluoro-1,3-benzothiazole-6-carboxylic acid]	116%	7.94 nM	147%	
CCCCCS(=O)(=O)NC(=O)c1ccc(N2[C@@H]3CC[C@H]2C[C@@H](OC(=O)c2c(-c4c(Cl)cccc4Cl)noc2C2CC2)C3)cc1 [Compound I-46, (1R,3R,5S)-8-{4-[(pentane-1-sulfonyl)carbamoyl]phenyl}-8-azabicyclo[3.2.1]octan-3-yl 5-cyclopropyl-3-(2,6-dichlorophenyl)-1,2-oxazole-4-carboxylate]				% Efficacy [1]: 110%; % Efficacy [2]: 146%
O=C(O)c1cc(F)c2nc(N3[C@@H]4CC[C@H]3C[C@@H](OC(=O)c3c(-c5ccccc5)noc3C3CC3)C4)sc2c1 [Compound I-13, 2-[(1R,3R,5S)-3-(5-Cyclopropyl-3-phenyl-1,2-oxazole-4-carbonyloxy)-8-azabicyclo[3.2.1]octan-8-yl]-4-fluoro-1,3-benzothiazole-6-carboxylic acid]	93%	1000 nM	40%	
O=C(O)c1cc(F)c2nc(N3[C@@H]4CC[C@H]3C[C@@H](OC(=O)c3c(C56CCC(CC5)CC6)noc3C3CC3)C4)sc2c1 [Compound I-20, 2-[(1R,3R,5S)-3-(3-{Bicyclo[2.2.2]octan-1-yl}-5-cyclopropyl-1,2-oxazole-4-carbonyloxy)-8-azabicyclo[3.2.1]octan-8-yl]-4-fluoro-1,3-benzothiazole-6-carboxylic acid]				% Efficacy [1]: 22%
O=C(O)c1cc(F)c2nc(N3[C@@H]4CC[C@H]3C[C@@H](OC(=O)c3c(-c5c(F)cccc5F)noc3C3CC3)C4)sc2c1 [Compound I-16, 2-[(1R,3R,5S)-3-[5-cyclopropyl-3-(2,6-difluorophenyl)-1,2-oxazole-4-carbonyloxy]-8-azabicyclo[3.2.1]octan-8-yl]-4-fluoro-1,3-benzothiazole-6-carboxylic acid]	110%	200 nM	47%	
Cn1c(N2[C@@H]3CC[C@H]2C[C@@H](OC(=O)c2c(-c4c(Cl)cccc4Cl)noc2C2CC2)C3)nc2c(F)cc(C(=O)O)cc21 [Compound I-31, 2-[(1R,3R,5S)-3-[5-cyclopropyl-3-(2,6-dichlorophenyl)-1,2-oxazole-4-carbonyloxy]-8-azabicyclo[3.2.1]octan-8-yl]-4-fluoro-1-methyl-1H-1,3-benzodiazole-6-carboxylic acid]	100%	398 nM		
O=C(O)c1cc(F)c2nc(N3[C@@H]4CC[C@H]3C[C@@H](OC(=O)c3c(-c5c(Cl)cccc5Cl)noc3C3(F)CC3)C4)sc2c1 [Compound I-27, 2-[(1R,3R,5S)-3-[3-(2,6-dichlorophenyl)-5-(1-fluorocyclopropyl)-1,2-oxazole-4-carbonyloxy]-8-azabicyclo[3.2.1]octan-8-yl]-4-fluoro-1,3-benzothiazole-6-carboxylic acid]	108%	3.98 nM	107%	
CCCS(=O)(=O)NC(=O)c1ccc(N2[C@@H]3CC[C@H]2C[C@@H](OC(=O)c2c(-c4c(Cl)cccc4Cl)noc2C2CC2)C3)cc1 [Compound I-45, (1R,3R,5S)-8-{4-[(propane-1-sulfonyl)carbamoyl]phenyl}-8-azabicyclo[3.2.1]octan-3-yl 5-cyclopropyl-3-(2,6-dichlorophenyl)-1,2-oxazole-4-carboxylate]				% Efficacy [1]: 128%; % Efficacy [2]: 130%
O=C(NS(=O)(=O)C1CC1)c1ccc(N2[C@@H]3CC[C@H]2C[C@H](OC(=O)c2c(-c4c(Cl)cccc4Cl)noc2C2CC2)C3)cc1 [Compound I-48, (1R,3S,5S)-8-{4-[(cyclopropanesulfonyl)carbamoyl]phenyl}-8-azabicyclo[3.2.1]octan-3-yl 5-cyclopropyl-3-(2,6-dichlorophenyl)-1,2-oxazole-4-carboxylate]				% Efficacy [1]: 130%
CC(C)(C)c1onc(-c2c(Cl)cccc2Cl)c1C(=O)OC1C[C@H]2CC[C@@H](C1)N2c1nc2c(F)cc(C(=O)O)cc2s1 (single isomer, unassigned) [Compound I-25]	100%	25.1 nM	56%	
Cc1onc(-c2c(Cl)cccc2Cl)c1C(=O)O[C@H]1C[C@H]2CC[C@@H](C1)N2c1nc2c(F)cc(C(=O)O)cc2s1 [Compound I-23, 2-[(1R,3S,5S)-3-[3-(2,6-dichlorophenyl)-5-methyl-1,2-oxazole-4-carbonyloxy]-8-azabicyclo[3.2.1]octan-8-yl]-4-fluoro-1,3-benzothiazole-6-carboxylic acid]	100%	158 nM	37%	
O=C(Cc1c(-c2c(Cl)cccc2Cl)noc1C1CC1)O[C@H]1C[C@H]2CC[C@@H](C1)N2c1nc2c(F)cc(C(=O)O)cc2s1 [Compound I-32, 2-[(1R,3R,5S)-3-({2-[5-cyclopropyl-3-(2,6-dichlorophenyl)-1,2-oxazol-4-yl]acetyl}oxy)-8-azabicyclo[3.2.1]octan-8-yl]-4-fluoro-1,3-benzothiazole-6-carboxylic acid]	86%	398 nM	34%	
CC(C)c1onc(-c2c(Cl)cccc2Cl)c1COc1ccc(/C=C/c2cccc(C(=O)O)c2)c(Cl)c1 [GW4064]				Activity, % (n) [3]: 100 ± 0 (154) %
O=C(O)c1ccc([C@H]2C[C@@H]2c2ccc(OCc3c(-c4c(Cl)cccc4Cl)noc3C3CC3)cc2Cl)cc1 [Px-102]				liver Cyp7a1 gene expression [4]: downregulated; hepatosteatosis related endpoints (including liver triglycerides and liver cholesterol) ([4]; 6 weeks of treatment): normalized; macrovesicular steatosis (score) ([4]; 6 weeks of treatment): reduced; serum FGF15 concentration ([4]; 6 weeks of treatment): further increased; serum cholesterol ([4]; 6 weeks of treatment): reduced; Activity, % (n) ([2]; Human FXR Binding (FRET), relative to GW4064): 90 ± 15 (3) %
O=C(O)c1cc(F)c2nc(N3[C@@H]4CC[C@H]3C[C@@H](OC(=O)c3c(C5CCC6(CC5)CC6)noc3C3CC3)C4)sc2c1 [Compound I-19, 2-[(1R,3R,5S)-3-(5-cyclopropyl-3-{spiro[2.5]octan-6-yl}-1,2-oxazole-4-carbonyloxy)-8-azabicyclo[3.2.1]octan-8-yl]-4-fluoro-1,3-benzothiazole-6-carboxylic acid]	79%	158 nM	55%	
